# From patent publication US20110039721A1, “METHOD FOR PREDICTION ABOUT CARCINOGENICITY OF SUBSTANCE IN RODENT” (Chemicals Evaluation and Research Institute, priority 2007, published 2011)
# Tests used:
# [1] = system: mRNA expressed from the genes (A) to (D) in rat liver; assay: Behavior of genes (mRNA expression level, oligo-DNA microarray) in rat liver after 28-day oral administration; type: in vivo; details: for Behavior of gene caused by administration of chemical substance, Gene No. 4846 / Behavior of gene caused by administration of chemical substance, Gene No. 2026 / Behavior of gene caused by administration of chemical substance, Gene No. 4218 / Behavior of gene caused by administration of chemical substance, Gene No. 6182 / Behavior of gene caused by administration of chemical substance, Gene No. 5600: gene group (A); for Behavior of gene caused by administration of chemical substance, Gene No. 4846: Unigene No. Rn.144554; for Behavior of gene caused by administration of chemical substance, Gene No. 2026 / Behavior of gene caused by administration of chemical substance, Gene No. 4218: Unigene No. Rn.167075; for Behavior of gene caused by administration of chemical substance, Gene No. 6182: Unigene No. Rn.5834; for Behavior of gene caused by administration of chemical substance, Gene No. 5600: Unigene No. Rn.9836; for Behavior of gene caused by administration of chemical substance, Gene No. 1494 / Behavior of gene caused by administration of chemical substance, Gene No. 2045 / Behavior of gene caused by administration of chemical substance, Gene No. 2203: gene group (B); for Behavior of gene caused by administration of chemical substance, Gene No. 1494: Unigene No. Rn.1430; for Behavior of gene caused by administration of chemical substance, Gene No. 2045: Unigene No. Rn.19329; for Behavior of gene caused by administration of chemical substance, Gene No. 2203: Unigene No. Rn.21240; for Behavior of gene caused by administration of chemical substance, Gene No. 533 / Behavior of gene caused by administration of chemical substance, Gene No. 725 / Behavior of gene caused by administration of chemical substance, Gene No. 1163 / Behavior of gene caused by administration of chemical substance, Gene No. 4973 / Behavior of gene caused by administration of chemical substance, Gene No. 4095 / Behavior of gene caused by administration of chemical substance, Gene No. 1334 / Behavior of gene caused by administration of chemical substance, Gene No. 6620 / Behavior of gene caused by administration of chemical substance, Gene No. 6303 / Behavior of gene caused by administration of chemical substance, Gene No. 5878 / Behavior of gene caused by administration of chemical substance, Gene No. 1131 / Behavior of gene caused by administration of chemical substance, Gene No. 1562 / Behavior of gene caused by administration of chemical substance, Gene No. 1741 / Behavior of gene caused by administration of chemical substance, Gene No. 893 / Behavior of gene caused by administration of chemical substance, Gene No. 6026 / Behavior of gene caused by administration of chemical substance, Gene No. 154 / Behavior of gene caused by administration of chemical substance, Gene No. 1993 / Behavior of gene caused by administration of chemical substance, Gene No. 813 / Behavior of gene caused by administration of chemical substance, Gene No. 2494 / Behavior of gene caused by administration of chemical substance, Gene No. 2546 / Behavior of gene caused by administration of chemical substance, Gene No. 3776 / Behavior of gene caused by administration of chemical substance, Gene No. 3929 / Behavior of gene caused by administration of chemical substance, Gene No. 1119 / Behavior of gene caused by administration of chemical substance, Gene No. 6742 / Behavior of gene caused by administration of chemical substance, Gene No. 5634: gene group (C); for Behavior of gene caused by administration of chemical substance, Gene No. 533: Unigene No. Rn.106184; for Behavior of gene caused by administration of chemical substance, Gene No. 725: Unigene No. Rn.108075; for Behavior of gene caused by administration of chemical substance, Gene No. 1163: Unigene No. Rn.11766; for Behavior of gene caused by administration of chemical substance, Gene No. 4973: Unigene No. Rn.118529; for Behavior of gene caused by administration of chemical substance, Gene No. 4095: Unigene No. Rn.119024; for Behavior of gene caused by administration of chemical substance, Gene No. 1334 / Behavior of gene caused by administration of chemical substance, Gene No. 6620: Unigene No. Rn.120914; for Behavior of gene caused by administration of chemical substance, Gene No. 6303: Unigene No. Rn.123063; for Behavior of gene caused by administration of chemical substance, Gene No. 5878: Unigene No. Rn.143213; for Behavior of gene caused by administration of chemical substance, Gene No. 1131: Unigene No. Rn.144946; for Behavior of gene caused by administration of chemical substance, Gene No. 1562: Unigene No. Rn.14744; for Behavior of gene caused by administration of chemical substance, Gene No. 1741: Unigene No. Rn.1647; for Behavior of gene caused by administration of chemical substance, Gene No. 893: Unigene No. Rn.164817; for Behavior of gene caused by administration of chemical substance, Gene No. 6026: Unigene No. Rn.167685; for Behavior of gene caused by administration of chemical substance, Gene No. 154: Unigene No. Rn.185941; for Behavior of gene caused by administration of chemical substance, Gene No. 1993: Unigene No. Rn.18728; for Behavior of gene caused by administration of chemical substance, Gene No. 813: Unigene No. Rn.201760; for Behavior of gene caused by administration of chemical substance, Gene No. 2494: Unigene No. Rn.23969; for Behavior of gene caused by administration of chemical substance, Gene No. 2546: Unigene No. Rn.24561; for Behavior of gene caused by administration of chemical substance, Gene No. 3776: Unigene No. Rn.43232; for Behavior of gene caused by administration of chemical substance, Gene No. 3929: Unigene No. Rn.4620; for Behavior of gene caused by administration of chemical substance, Gene No. 1119: Unigene No. Rn.9757; for Behavior of gene caused by administration of chemical substance, Gene No. 6742: Unigene No. Rn.9779; for Behavior of gene caused by administration of chemical substance, Gene No. 5634: Unigene No. Rn.9862; for Behavior of gene caused by administration of chemical substance, Gene No. 5726: gene group (D), Unigene No. Rn.9939
# Method in brief: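 Liver mRNA levels were compared with matched vehicle groups, with a shift of at least 1.5-fold up or down deemed significant unless its direction disagreed with other carcinogens. Test substances were dosed orally by gavage daily for 28 days to 5-week-old male F344 rats, four per group.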
# liver = details: classification of the substance (Cr+/Cr−); cited from earlier work
# rodent = details: classification of the substance (C+/C−); cited from earlier work
# [2] = classification of the substance (M+/M−); cited from earlier work
smiles,measurement,setting,value
"ClC(Cl)(Cl)Cl [TS003, Carbon tetrachloride]","Behavior of gene caused by administration of chemical substance, Gene No. 4846",[1],+
same,"Behavior of gene caused by administration of chemical substance, Gene No. 2026",[1],+
same,"Behavior of gene caused by administration of chemical substance, Gene No. 4218",[1],+
same,"Behavior of gene caused by administration of chemical substance, Gene No. 6182",[1],+
same,"Behavior of gene caused by administration of chemical substance, Gene No. 5600",[1],+
same,"Behavior of gene caused by administration of chemical substance, Gene No. 1494",[1],+
same,"Behavior of gene caused by administration of chemical substance, Gene No. 2045",[1],+
same,"Behavior of gene caused by administration of chemical substance, Gene No. 2203",[1],+
same,"Behavior of gene caused by administration of chemical substance, Gene No. 533",[1],+
same,"Behavior of gene caused by administration of chemical substance, Gene No. 725",[1],−
same,"Behavior of gene caused by administration of chemical substance, Gene No. 1163",[1],+
same,"Behavior of gene caused by administration of chemical substance, Gene No. 4973",[1],+
same,"Behavior of gene caused by administration of chemical substance, Gene No. 4095",[1],−
same,"Behavior of gene caused by administration of chemical substance, Gene No. 1334",[1],−
same,"Behavior of gene caused by administration of chemical substance, Gene No. 6620",[1],−
same,"Behavior of gene caused by administration of chemical substance, Gene No. 6303",[1],−
same,"Behavior of gene caused by administration of chemical substance, Gene No. 5878",[1],−
same,"Behavior of gene caused by administration of chemical substance, Gene No. 1131",[1],−
same,"Behavior of gene caused by administration of chemical substance, Gene No. 1562",[1],−
same,"Behavior of gene caused by administration of chemical substance, Gene No. 1741",[1],+
same,"Behavior of gene caused by administration of chemical substance, Gene No. 893",[1],−
same,"Behavior of gene caused by administration of chemical substance, Gene No. 6026",[1],−
same,"Behavior of gene caused by administration of chemical substance, Gene No. 154",[1],+
same,"Behavior of gene caused by administration of chemical substance, Gene No. 1993",[1],−
same,"Behavior of gene caused by administration of chemical substance, Gene No. 813",[1],−
same,"Behavior of gene caused by administration of chemical substance, Gene No. 2494",[1],−
same,"Behavior of gene caused by administration of chemical substance, Gene No. 2546",[1],−
same,"Behavior of gene caused by administration of chemical substance, Gene No. 3776",[1],−
same,"Behavior of gene caused by administration of chemical substance, Gene No. 3929",[1],−
same,"Behavior of gene caused by administration of chemical substance, Gene No. 1119",[1],−
same,"Behavior of gene caused by administration of chemical substance, Gene No. 6742",[1],−
same,"Behavior of gene caused by administration of chemical substance, Gene No. 5634",[1],−
same,"Behavior of gene caused by administration of chemical substance, Gene No. 5726",[1],−
same,Liver carcinogenicity,liver,Cr+
same,Carcinogenicity,rodent,C+
same,Mutagenicity by Ames test,[2],M−
"OC[C@@H](O)[C@@H](O)[C@H](O)[C@H](O)CO [TS009, D-Mannitol]","Behavior of gene caused by administration of chemical substance, Gene No. 4846",[1],−
same,"Behavior of gene caused by administration of chemical substance, Gene No. 2026",[1],−
same,"Behavior of gene caused by administration of chemical substance, Gene No. 4218",[1],−
same,"Behavior of gene caused by administration of chemical substance, Gene No. 6182",[1],−
same,"Behavior of gene caused by administration of chemical substance, Gene No. 5600",[1],−
same,"Behavior of gene caused by administration of chemical substance, Gene No. 1494",[1],−
same,"Behavior of gene caused by administration of chemical substance, Gene No. 2045",[1],−
same,"Behavior of gene caused by administration of chemical substance, Gene No. 2203",[1],−
same,"Behavior of gene caused by administration of chemical substance, Gene No. 533",[1],−
same,"Behavior of gene caused by administration of chemical substance, Gene No. 725",[1],−
same,"Behavior of gene caused by administration of chemical substance, Gene No. 1163",[1],−
same,"Behavior of gene caused by administration of chemical substance, Gene No. 4973",[1],−
same,"Behavior of gene caused by administration of chemical substance, Gene No. 4095",[1],−
same,"Behavior of gene caused by administration of chemical substance, Gene No. 1334",[1],−
same,"Behavior of gene caused by administration of chemical substance, Gene No. 6620",[1],−
same,"Behavior of gene caused by administration of chemical substance, Gene No. 6303",[1],−
same,"Behavior of gene caused by administration of chemical substance, Gene No. 5878",[1],−
same,"Behavior of gene caused by administration of chemical substance, Gene No. 1131",[1],−
same,"Behavior of gene caused by administration of chemical substance, Gene No. 1562",[1],−
same,"Behavior of gene caused by administration of chemical substance, Gene No. 1741",[1],−
same,"Behavior of gene caused by administration of chemical substance, Gene No. 893",[1],−
same,"Behavior of gene caused by administration of chemical substance, Gene No. 6026",[1],−
same,"Behavior of gene caused by administration of chemical substance, Gene No. 154",[1],−
same,"Behavior of gene caused by administration of chemical substance, Gene No. 1993",[1],−
same,"Behavior of gene caused by administration of chemical substance, Gene No. 813",[1],−
same,"Behavior of gene caused by administration of chemical substance, Gene No. 2494",[1],−
same,"Behavior of gene caused by administration of chemical substance, Gene No. 2546",[1],−
same,"Behavior of gene caused by administration of chemical substance, Gene No. 3776",[1],−
same,"Behavior of gene caused by administration of chemical substance, Gene No. 3929",[1],−
same,"Behavior of gene caused by administration of chemical substance, Gene No. 1119",[1],−
same,"Behavior of gene caused by administration of chemical substance, Gene No. 6742",[1],−
same,"Behavior of gene caused by administration of chemical substance, Gene No. 5634",[1],−
same,"Behavior of gene caused by administration of chemical substance, Gene No. 5726",[1],−
same,Liver carcinogenicity,liver,Cr−
same,Carcinogenicity,rodent,C−
same,Mutagenicity by Ames test,[2],M−
